What was measured:
[1] = system: guinea pig tracheal smooth muscle cells; test: Measurement of cAMP in TSMCs; type: cell-based; details: for cAMP level / cAMP accumulation versus vehicle (FIG. 6): 100 _M, 20 min; for cAMP level: basal/vehicle 62.6±6.4
Description: (§1) Cell Culture of Tracheal Smooth Muscle: Guinea pigs (350-450 g) were injected i.p. with a lethal dose of pentobarbital. The tracheas were excised and cut longitudinally through the cartilage. Using a dissecting microscope, TSM strips were dissected from the surrounding parentchyma. The epithelium was removed from the luminal surface, and bands of TSM were gently separated from the underlying connective tissue. Then TSM strips were chopped into small sections (1 mm^3) and incubated in Hanks' balanced salt solution (138 mM NaCl, 4 mM NaHCO3, 5 mM KCl, 0.3 mM KH2PO4, 0.3 mM Na2HPO4, and 1.0 mM glucose) with 0.05% elastase type IV and 0.2% collagenase type IV (Invitrogen, Carlsbad, Calif.) for 30 min at 37_ with gentle shaking. The solution of dissociated smooth muscle cells was centrifuged (6 min at 500 g), and the pellet was resuspended in 1:1 Dulbecco's modified Eagle's medium/Ham's F-12 medium supplemented with 10% fetal bovine serum, 0.244% NaHCO3, and 1% penicillin/streptomycin. Cells were cultured in 25-cm^2 flasks at 37_ in humidified air containing 5% CO2. Confluent cells were detached with 0.25% trypsin-0.02% EDTA at 37_and then subcultured to establish secondary cultures. Cultures were maintained for no more than four passages. They were identified as smooth muscle cells by the typical hill-and-valley appearance, and cellular homogeneity was further confirmed by the presence of smooth muscle specific _-myosin and _-actin immunoreactivity. Indirect immunofluorescence staining for a variety of antigens was carried out by first plating the cells on chamber slides, fixing the cells in 3.7% formaldehyde-phosphate-buffered saline for 10 min, and permeabilizing the cells with phosphate-buffered saline and 0.1% Triton X-100. Cells were then stained with either a mouse monoclonal antibody directed against the amino-terminal 10 amino acids of _-smooth muscle actin or _-myosin (Roche Diagnostics, Indianapolis, Ind.). All cells were stained with fluorescein-labeled goat anti-mouse IgG antibody (Roche Diagnostics).
(§2) Measurement of cAMP and cGMP: Intracellular concentrations of cAMP and cGMP in TSMCs were measured as in our previous reports (Wu B N, Lin R J, Lin C Y, Shen K P, Chiang L C, and Chen I J (2001) A xanthine-based KMUP-1 with cyclic GMP enhancing and K^+ channels opening activities in rat aortic smooth muscle. Br J Pharmacol 134:265-274; Lin R J, Wu B N, Lo Y C, Shen K P, Lin Y T, Huang C H, and Chen I J (2002) KMUP-1 relaxes rabbit corpus cavernosum smooth muscle in vitro and in vivo: involvement of cyclic GMP and K(+) channels, Br J Pharmacol 135:1159-1166). In brief, cells were finally grown in 24-well plates (10^5 cells/well). At confluence, monolayer cells were washed with phosphate-buffered saline and then incubated with KMUP-3 (0.01-100 _M) for 20 min at 37_ in medium. […] The reaction was terminated by replacement of medium with 1 ml of ice-cold 1 N hydrochloric acid. Cells suspensions were sonicated and then centrifuged at 2500 g for 15 min at 4_. Then, the supernatants were lyophilized and the cAMP and cGMP of each sample were determined using commercially available radioimmunoassay kits (GE Healthcare, Little Chalfont, Buckinghamshire, UK).

[2] = system: cultured guinea pig tracheal smooth muscle cells; test: Expression of PKA and PKG (Western blot); type: cell-based; details: 1 _M, 30 min
Description: as §1
Expression of PKA and PKG: The expression of PKA and PKG was determined by Western blot as previously described by Wu et al. and Murthy et al. (Wu B N, Lin R J, Lo Y C, Shen K P, Wang C C, Lin Y T, and Chen I J (2004) KMUP-1, a xanthine derivatives, induces relaxation of guinea-pig isolated trachea: the role of the epithelium, cyclic nucleotides and K^+ channels. Br J Pharmacol 142:1105-1114; Murthy K S, Zhou H, and Makhlouf G M (2002) PKA-dependent activation of PDE3A and PDE4 and inhibition of adenylyl cyclase V/VI in smooth muscle. Am J Physiol 282:C508-C517). Guinea pig TSMCs were incubated with KMUP-3 for 30 min. Each of the cell lysates, each containing 1 _g of cellular protein, was electrophoresed in 7.5% SDS-polyacrylamide gel electrophoresis and then transferred to polyvinylidene diflouride membrane (Millipore Corporation, Billerica, Mass.). The membrane was stained with Ponceau S to verify the integrity of the transferred proteins and to monitor the unbiased transfer of all protein samples. The membrane was then washed with 25 ml of TBS (100 mM NaCl, 0.1% and 10 mM Tris-HCl, pH 7.5) for 5 min at room temperature and incubated in 25 ml of blocking buffer (TBS plus 0.1% Tween 20 and 5% nonfat milk) overnight at 4_. In the measurement of protein, the membrane was incubated with appropriate PKARI or PKA1—1— primary antibody (diluted 1:250) in 2 ml of blocking buffer for 1 h at room temperature, washed three times for 5 min each with 15 ml of Tris-buffered saline/Tween 20 (TBS plus 0.1% Tween 20), incubated with horseradish peroxidase-conjugated secondary antibody (1:10,000) in 15 ml of blocking buffer with gentle agitation for 1 h at room temperature, and finally washed three times for 5 min each time with 15 ml of Tris-buffered saline/Tween 20. The membrane was then subjected to enhanced chemiluminescence (GE Healthcare) for the detection of the specific antigen.

[3] = system: carbachol (1 _M)-precontracted guinea pig trachea; test: Isolated tracheal preparation, measurement of tension; details: 100 _M, carbachol (1 _M)-precontracted, EP+
Description: Isolated Tracheal preparation and Measurement of Tension: Guinea pigs (350-450 g) were anesthetized with pentobarbital (70 mg/kg) i.p. and killed by a sharp blow on the neck, followed by cervical dislocation. The trachea was excised, cleaned of adhering fat and connective tissue, cut transversely into four to five rings, and then opened by cutting longitudinally through the cartilage rings diametrically opposite the tracheal smooth muscle (Hwang T L, Wu C C, and Teng C M (1999) YC-1 potentiates nitric oxide-induced relaxation in guinea-pig trachea. Br J Pharmacol 128:577-584). Then trachea rings were suspended in a 10-ml organ bath containing Krebs' solution (118 mM NaCl, 25 mM NaHCO3, 4.7 mM KCl, 1.2 mM KH2PO4, 1.2 mM MgSO4, 11 mM glucose, and 2.5 mM CaCl2, pH 7.3-7.4) maintained at 37_and aerated with 95% O2 and 5% CO2. Each tracheal tissue sample was subjected to 2 g of initial basal tension. All experiments were carried out in the presence of indomethacin (3 _M) and propranolol (1 _M) to prevent the formation of prostanoids and to inhibit _-adrenergic responses, respectively. Isometric tension was recorded with a force displacement transducer (model FT03; Grass Instruments, Quincy, M A). Before the start of measurements, all preparations were allowed to equilibrate with frequent washing for 1 h. They were first contracted with carbachol (1 _M) to determine the contractility of preparations. This was also done at the end of each experiment. The preparations were then washed and allowed to equilibrate with Krebs' solution for 50 min before being contracted a second time with carbachol (1 _M). When stable constriction to carbachol was reached, concentration responses of KMUP-3 (10, 30, and 100 _M) were obtained. Data were expressed as percentages of the maximum contractile response to carbachol (1 _M).
In experiments to examine the role of epithelium in tracheal relaxation, the epithelial cells were removed mechanically by rubbing the internal surface of trachea with a fine silver wire, and the removal of the epithelial layer was confirmed by histological examination as previously described (Wu et al., 2004).
To examine the possible mechanism of tracheal relaxant effects of KMUP-3, the tracheal strips were pretreated with a K^+ channel blocker, tetraethylammonium (TEA; 10 mM); a KATP channel blocker, glibenclamide (1-M); voltage-dependent K^+ channel blocker, 4-aminopyridine (4-AP, 100 _M); Ca^2+-dependent K^+ channel blockers, apamin (1 _M) and charybdotoxin (ChTX; 0.1 _M); a sGC inhibitor, 1H-[1,2,4]oxadiazolo[4,3-a]quinoxalin-1-one (ODQ; 1 _M); an NOS inhibitor, N—nitro-L-arginine methyl ester (L-NAME; 100 _M); and an adenylate cyclase (AC) inhibitor, SQ 22536 (100 _M) for 30 min prior to the addition of KMUP-3 (10, 30, and 100 _M). In the other experiments, TSMs were precontracted with 60 mM KCl to examine the relaxation achieved by KMUP-3. The KCl solution was prepared by substituting NaCl with KCl (60 mM) in an equimolar amount.

[4] = system: guinea pig tracheal smooth muscle cells; test: Measurement of cGMP in TSMCs; type: cell-based; details: for amounts of cGMP versus vehicle (FIG. 6): 100 _M, 20 min
Description: as §1, §2

[5] = system: PDE4 purified from human U-937 pronocytic cells; test: Phosphodiesterase activity, PDE4; type: biochemical; details: 10 _M compound, n = 3
Description: Phosphodiesterase Activity: PDE activity was determined by the method of Nicholson et al. (Nicholson C D, Challiss R A, and Shahid M (1991) Differential modulation of tissue function and therapeutic potential of selective inhibitors of cyclic nucleotide phosphodiesterase isonzymes. Trends Pharmaclo Sci 12:19-27). PDE3 and PDE5 purified from human platelets and PDE4 purified from human U-937 pronocytic cells were used. Test compound (10 _M) or vehicle was incubated with 0.2 _g of enzyme and 1 _M cAMP containing 0.01 _M [^3H]cAMP in Tris buffer, pH 7.5, for 20 min at 25_. The reaction was terminated by boiling for 2 min, and the resulting […] was converted to adenosine by the addition of 10 mg/ml snake venom nucleotidase, which is followed by a further incubation at 37_for 10 min. Unhydrolyzed cAMP was bound to AG1-X2 resin, and the remaining [^3H]adenosine in the aqueous phase was quantitated by scintillation counting.

SMILES	relaxation in epithelium-intact trachea (FIG. 3(B)) [3]	amounts of cGMP versus vehicle (FIG. 6) [4]	cAMP accumulation versus vehicle (FIG. 6) [1]	further results
C=C[C@@]1(C)CC(=O)[C@]2(O)[C@@]3(C)[C@@H](O)CCC(C)(C)[C@@H]3[C@H](O)[C@H](OC(C)=O)[C@@]2(C)O1 [Forskolin, forskolin, reference compound]				cAMP level in presence of SQ 22536 ([1]; 100 _M compound plus SQ 22536 (100 _M) pretreatment): 94.33 ± 3.42 pmol/mg protein; cAMP level [1]: 119.15 ± 5.11 pmol/mg protein
Nc1nc2c(nc(Br)n2[C@@H]2O[C@@H]3COP(=O)(O)O[C@H]3[C@H]2O)c(=O)[nH]1 [8-Br-cGMP, reference compound]				expression of PKA1—1— (FIG. 7(B)) [2]: increased the expression of PKA1—1—
Nc1ncnc2c1ncn2C1CCCO1 (stereo not drawn) [SQ 22536, reference compound]				cAMP level [1]: 74.32 ± 7.56 pmol/mg protein
CC(C)Cn1c(=O)n(C)c(=O)c2[nH]cnc21 [IBMX, 3-isobutyl-1-methylxanthine, reference compound]	cause relaxations			
COc1ccc(C2CNC(=O)C2)cc1OC1CCCC1 (stereo not drawn) [rolipram, reference compound]	cause relaxations	not observed	significant elevations	
O=c1onc2cnc3ccccc3n12 [ODQ, 1H-[1,2,4]oxadiazolo[4,3-a]quinoxalin-1-one, reference compound]				Cyclic GMP level ([4]; 10 _M (ODQ alone), vehicle 1.18 ± 0.06): 1.12 ± 0.03 pmol/mg protein
Cn1c(=O)c2[nH]cnc2n(C)c1=O [theophylline, reference compound]	cause relaxations	significantly enhances	significant elevations	PDE4 Inhibition [5]: 7.9±1.2%
Cc1[nH]c(=O)c(C#N)cc1-c1ccncc1 [milrinone, reference compound]	cause relaxations	not observed	significant elevations	
CCCOc1ccccc1-c1nc2nn[nH]c2c(=O)[nH]1 [zaprinast, reference compound]	cause relaxations	significantly enhances	not so	
CC1(C)Oc2ccc(C#N)cc2[C@@H](N2CCCC2=O)[C@@H]1O [levcromakalim, reference compound]	displayed relaxation effects			
Nc1ncnc2c1nc(Br)n2[C@@H]1O[C@@H]2COP(=O)(O)O[C@H]2[C@H]1O [8-Br-cAMP, reference compound]				expression of immunoreactive PKARI protein (FIG. 7(A)) [2]: increased the expression of PKARI

From patent US20080051413A1, “Nitrophenylpiperazine derivative of xanthine which relaxes tracheal airway and increases respiratory performance” (KAOHSIUNG MEDICAL UNIVERSITY, priority 2006, published 2008)
